The record followed here is patent US20240150809A1, “Method of Evaluating the Biofilm Detachment Efficacy of Compositions” (Colgate-Palmolive Company, priority 2021, published 2024).

The subject of this experiment is S. gordonii biofilms. In words: adapted spinning-disc rheometry analysis of biofilm detachment. Format: cell-based, Streptococcus gordonii. As to conditions: for biofilm momentum coefficient (CB): 200-300 rad·s^−1, vs untreated; for area under the curve (AUC) of the torque-angular velocity curves: whole analyzed range. The protocol: Spinning-disc rheology was adapted to analyze biofilm detachment from surfaces. S. gordonii biofilms were grown on 3D printed coupons for 5 days. The model for the coupons was designed in SolidWorks (Dassault Systèmes). Coupons were 3D printed using a Prime 30 PolyJet 3D printer (Objet, Stratasys) using RGD720 photopolymer for the printing material (Stratasys). The coupon was printed at a resolution of 0.0008 inches. The coupon surface was sanded used P300 sandpaper to create a rougher surface for bacteria to attach. Prior to inoculating, coupons were sterilized in 70% ethanol.
S. gordonii wild type strain DL1 was used in this study. Overnight cultures were prepared by inoculating 10 mL of brain heart infusion broth (Oxoid; BHI) with a colony of S. gordonii and incubated statically overnight at 37° C. with 5% CO2. Sterile 40 mm coupons were placed in a Petri dish containing 40 mL BHI, supplemented with 0.5% sucrose. Coupons were inoculated with 400 μL of overnight culture. Biofilms were incubated in a humidified chamber at 37° C. with 5% CO2, on an orbital shaker at 150 rpm. Every 24 h the media was replenished. […]
Biofilms were analyzed on a Discovery Hybrid Rheometer-2 (HD-2) (TA Instruments). A 15×15 cm square clear acrylic container filled with 2.8 L reverse osmosis water was transferred onto the Peltier plate. Biofilm-coated coupons were immersed and attached to the rheometer shaft using a custom-made adapter probe. The gap distance between the bottom of the container and the coupon was set to 3.5 cm (FIG. 1). Immersed coupons were spun at an angular velocity (ω) range of 0.1-300 rad·s^−1, incrementing the speed over 360 seconds, and the resulting torque (T), a measurement of resistance to rotation, was measured across this velocity range.
Data was collected using TRIOS v5 software (TA instruments), with raw data exported in excel. Data was transformed, and calculations performed in excel. Data was visualized and statistical analysis performed in GraphPad Prism v8 (GraphPad Software). All statistical comparisons were performed using a Student's t-test, with p<0.05 indicating significance.
To more easily observe the changes in torque associated with biofilm detachment, the torque-angular velocity data was linearized and transformed. The data was linearized by taking the square root of the torque. The running slope of 5 data points of the linearized data was determined. […] Therefore, final transformed data is presented as the running slope of the linearized data against angular velocity, starting at 20 rad·s^−1.
Five day S. gordonii biofilms were treated with either PBS (untreated control) or 4% arginine for 2 min. […] After treatment, Biofilms were analyzed on a Discovery Hybrid Rheometer-2 (HD-2) (TA Instruments) as described above. Four biological replicates were analyzed, each with 2-4 technical replicates (total N=11).
To quantify the mechanical differences between arginine treated and untreated S. gordonii biofilms, the biofilm momentum coefficient (CB) across the turbulent regimes of 200-300 rad·s^−1 was determined according to equation 1: […]
To quantify these differences, the angular velocity where the first reduction in torque occurred was converted to the shear stress acting on the outer edge of the coupon, according to equation 3.
Next, the biofilm disrupting effect of arginine was compared with that of glycine and lysine by the spinning-disc rheometry assay to determine if biofilm disrupting effect is a general property of amino acids, or specific to arginine.

Where [1] appears, read: 5 day S. gordonii biofilms, 4% arginine for 2 min, vs PBS untreated control.
The mark [2] stands for this setting: 5 day S. gordonii biofilms, 4% arginine for 2 min, vs untreated.
[3] abbreviates: Seven day S. gordonii biofilms, 4% arginine or 0.23M glycine or lysine for 2 min, equation 3, vs untreated.
Where [4] appears, read: Seven day S. gordonii biofilms, 4% arginine or 0.23M glycine or lysine for 2 min, vs untreated.

Turning to `N=C(N)NCCC[C@H](N)C(=O)O` [arginine], for the setting “5 day S. gordonii biofilms, 4% arginine for 2 min, 0.1-300 rad·s^−1, vs untreated”, the “torque across angular velocity range” value was “reduced torque”. Moreover, the “biofilm momentum coefficient (CB)” value (5 day S. gordonii biofilms, 4% arginine for 2 min) is reported as “no statistical difference”. For the same compound, the “shear stress at the first reduction in torque (initiation of detachment)” value (5 day S. gordonii biofilms, 4% arginine for 2 min, equation 3, vs untreated) is “significantly lower shear stresses”. The “angular velocity at which changes in torque associated with biofilm detachment events occurred” value (5 day S. gordonii biofilms, 4% arginine for 2 min, transformed analysis, vs untreated) was “lower angular velocity ranges”. Under setting [1], the “amount of remaining biofilm attached to the coupon after rheometry analysis” value is listed as “did not appear to affect” and the “biofilm morphology (macroscopic)” value is on record as “did not appear to affect”. For the same compound, under setting [2], the “changes in torque in transformed data (running slope of torque^1/2 vs angular velocity)” value was “greater changes in torque” and the “area under the curve (AUC) of the torque-angular velocity curves” value (“area under the curve (AUC)” for short) is recorded as “significantly reduced AUC”. Moreover, under “Seven day S. gordonii biofilms, 4% arginine or 0.23M glycine or lysine for 2 min”, the “biofilm momentum coefficient (CB)” value is “significantly lower”. The “shear stress at the first reduction in torque (detachment shear stress)” value under setting [3] is “significantly lower shear stresses”. For the same compound, under setting [4], the “torque (torque-displacement profile)” value was “reduced torque” and the “area under the curve (AUC)” value was “significantly reduced AUC”.

Regarding `NCC(=O)O` [glycine, reference compound], under setting [3], the “shear stress at the first reduction in torque (detachment shear stress)” value is listed as “no significant difference”. Further, the “area under the curve (AUC)” value under setting [4] is on record as “no significant differences”.

Regarding `NCCCC[C@H](N)C(=O)O` [lysine, reference compound], under setting [3], the “shear stress at the first reduction in torque (detachment shear stress)” value is given as “no significant difference”. Besides, under setting [4], the “area under the curve (AUC)” value is listed as “no significant differences”.
